In patent US10124007B2, “Combination of PI3K-inhibitors” (BAYER PHARMA AKTIENGESELLSCHAFT, priority 2013, dated 2018):
Several values for one entry are separate records, joined by “and”; a condition that tells them apart may be missing. Identical values can stand only once.

Assays:
4T1 = experiment: WST-1 based proliferation assay, 4T1; assay type: cell-based, mouse; details: for 4T1 cell proliferation at lower dose (effect in words): lower (250 nM) dose
Experimental: (§1) The effects of PI3K inhibitor Compound A1 and radium 223 in MCF-7 and 4T1 breast cancer cells and PC-3 and LNCaP prostate cancer cells were investigated in vitro as single agent and in combination. The effects were studied by measuring cell proliferation and apoptosis. Radium 223 and the reference inhibitor doxorubicin were added at day 0. The PI3K inhibitor(s) was added at day −1 (24 hours before addition of Alpharadin) and at day 4. The following two concentrations of the inhibitors and two concentrations of radium 223 in 4 replicates were tested:
(§2) The effects on cell proliferation were studied using a WST-1 based proliferation assay and the effects on apoptosis were studied in parallel plates by measuring caspase 3/7 activity. The measurements were performed at 4 different time points, days 1, 2, 3 and 5. Caspase activity was normalized to the cell number obtained with the WST-1 assay in parallel plates.

PC-3 = experiment: WST-1 based proliferation assay, PC-3; assay type: cell-based, human; details: WST-1, days 1-5
Experimental: as §1, §2

MCF-7 [1] = experiment: WST-1 based proliferation assay, MCF-7; assay type: cell-based, human; details: WST-1, days 1-5
Experimental: as §1, §2

LNCaP = experiment: WST-1 based proliferation assay, LNCaP; assay type: cell-based, human; details: for LNCaP cell proliferation (effect in words): WST-1, days 1-5
Experimental: as §1, §2

[2] = system: patients with CRPC (Castration Resistant Prostate Cancer) and bone metastases; details: cited from earlier work
[3] = single dose 250 kBq per kg body weight; cited from earlier work
[4] = system: LNCaP prostate cancer cells in bone; experiment: Orthotopic LNCaP CRPC bone model in mice; assay type: in vivo; details: for Tumor growth (effect in words): LNCaP CRPC model; for Number of osteoclasts at tumor-bone interface (effect in words): TRAP staining; for Inhibition of progression of osteoblastic lesions / Growth/progression of osteoblastic lesions (effect in words): x-ray radiography; for Growth/progression of osteoblastic lesions (effect in words): lesion area
Description: The monotherapy and the combination of compound A1 and radium 223 were further tested in an orthotopic model of LNCaP, a CRPC cell line in mice. The LNCaP cells are known to form osteoblastic and mixed lesions when inoculated to bone marrow cavity. We used this model for testing the effects of compound A1 and radium-223 as single agent and in combination on the growth of LNCaP prostate cancer cells in bone. The osteoblastic bone metastases was visualized by X-ray radiography about six weeks post tumor cell inoculation. Mice with established bone metastases were randomized and treated for 45 days. The following four experimental groups with 13-14 mice in each were included in the study:
1) Vehicle control (Compd A1 vehicle QD po)
2) Ra-223 300 kBq/kg (dosed twice at 4-week intervals)+vehicle QD po
3) Compd A1 75 mg/kg (po QD)
Body weights were determined twice a week. Blood samples were taken and the animals radiographed biweekly. The animals were sacrificed 45 days after dosing, or earlier if they were moribund. Terminal blood samples were taken. Tissue samples were collected and processed for gamma-counter measurements, microCT measurements and histomorphometry.

[5] = system: 4T1-GFP-fluorescent mouse breast cancer cells; experiment: 4T1-GFP syngeneic breast cancer bone metastasis model in mice; assay type: in vivo, Balb/c mice; details: for Survival Days after Treatment, Average: average of 10 survival animals; for Survival Days after Treatment, Average / Survival Days after Treatment: radium 223 300 kBq/kg iv once, Compound A1 75 mg/kg po QD; for Survival Days after Treatment: individual survival animals 1-10; for Adrenal glands with metastasis / Ovaries with metastasis / Kidneys with metastasis: non-survival animals sacrificed at day 12 or 13; for Kidneys with metastasis: macroscopic findings and fluorescence imaging
Experimental: The monotherapy and the combination of compound A1 and radium 223 were tested in a syngeneic animal model that resembles the characteristics of breast cancer bone metastatic disease in humans. This model can be effectively used for testing the effects of cancer drug candidates on the metastasis of breast cancer cells to bone.
To this extend, 4T1-GFP-fluorescent mouse breast cancer cells were inoculated into the left cardiac ventricle of 4-5 weeks old female Balb/c mice. Within one-two weeks after the inoculation, the animals developed osteolytic bone metastases that can be visualized by GFP-fluorescence and X-ray radiography.
On day 7 post tumor cell inoculation, animals were randomized according to radiography and presence of tumor metastases. On day 7, animals were dosed with a single dose of radium 223 or vehicle, daily dose of PI3K inhibitor or a combination treatment with single dose of radium 223 and daily continuous dosing of PI3K inhibitor. Half of the animals (n=10) from each treatment group were sacrificed on day 13 after inoculation, or earlier when they were moribund, half of the animals (N=10) were sacrificed when they became moribund. The osteolytic lesions and whole body tumor burden were measured by x-ray and fluorescence imaging at sacrifice. Furthermore, tissue samples from the left and right tibia and femur were collected for further histomorphometric analysis. Tissue was embedded in paraffin for histomorphometric analysis of bone and tumor area.
Groups: Control group (vehicle) received Alpharadin vehicle (sodium citrate buffer), iv once and PEG/Wfi 60:40 pH 4.0, po QD; radium 223 group was given at 300 kBq/kg of radium 223, iv once and PEG/Wfi 60:40 pH 4.0, po QD; PI3K group was given 75 mg/kg of Compound A1, po QD and radium 223 vehicle, iv once; the combination group was given 300 kBq/kg of radium 223, iv once and 75 mg/kg of Compound A1, po QD;

[6] = system: patients with bone metastases; details: cited from earlier work
MCF-7 [7] = experiment: Caspase 3/7 apoptosis assay, MCF-7; assay type: cell-based, human; details: caspase 3/7 normalized to WST-1, day 2
Experimental: as §1, §2

[8] = fluorescence imaging at sacrifice

COc1cccc2c1C(=O)c1c(O)c3c(c(O)c1C2=O)C[C@@](O)(C(=O)CO)C[C@@H]3O[C@H]1C[C@H](N)[C@H](O)[C@H](C)O1 [doxorubicin]
4T1 cell proliferation (effect in words) (4T1; WST-1, days 1-5): inhibited proliferation
PC3 cell proliferation (effect in words) (PC-3): inhibited proliferation
MCF-7 cell proliferation (effect in words) (MCF-7 [1]): inhibited proliferation
LNCaP cell proliferation (effect in words) (LNCaP): inhibited proliferation

[Cl][223Ra][Cl] [radium 223, radium-223 dichloride]
Median survival longer than placebo ([2]; in vivo): 2.8 months
Time to first skeletal-related event ([2]; in vivo): significantly prolonged
Reduction in risk of death compared with placebo ([2]; overall survival): 30.5%
4T1 cell proliferation at higher dose (effect in words) (4T1; higher dose): strong anti-proliferative effects
4T1 cell proliferation at lower dose (effect in words) (4T1): only moderate inhibition
Observed adverse reactions [3]: diarrhea and reversible myelosuppression
PC3 cell proliferation (effect in words) (PC-3): moderate inhibition
Tumor growth (effect in words) [4]: potently inhibited
Number of osteoclasts at tumor-bone interface (effect in words) [4]: eradicated
Number of osteoclasts at tumor-bone interface (effect in words) ([4]; listed as Ra-223): decreased
Inhibition of progression of osteoblastic lesions [4]: 56%
Growth/progression of osteoblastic lesions (effect in words) [4]: significantly inhibited
Survival Days after Treatment, Average [5]: 6.8 days
Whole body tumor burden (effect in words) [5, 8]: not statistically significant
Survival Days after Treatment [5]: 8 days (4×) and 6 days (6×)
Adrenal glands with metastasis [5]: 94%
Ovaries with metastasis [5]: 94%
Kidneys with metastasis [5]: 22%
Disease-related biomarkers (bone ALP, PSA) ([6]; Phase 2 studies): improves disease-related biomarkers
Pain ([6]; Phase 2 studies): reduces pain
Safety profile ([6]; phase 1 and 2 studies): favorable safety profile, with minimal myelotoxicity
MCF-7 cell proliferation (effect in words) (MCF-7 [1]): only slight inhibition
LNCaP cell proliferation at high dose (effect in words) (LNCaP; high dose (1600 Bq/mL)): effective
MCF-7 apoptosis induction / tumor cell death (effect in words) (MCF-7 [7]): could not induce tumor cell death

COc1c(OC[C@H](O)CN2CCOCC2)ccc2c1N=C(NC(=O)c1cccnc1C)N1CCN=C21 [Compound A1, N-(8-{[(2R)-2-hydroxy-3-(morpholin-4-yl)propyl]oxy}-7-methoxy-2,3-dihydroimidazo[1,2-c]quinazolin-5-yl)-2-methylpyridine-3-carboxamide]
4T1 cell proliferation at lower dose (effect in words) (4T1): only moderate inhibition
PC3 cell proliferation (effect in words) (PC-3): better anti-proliferactive activity
Tumor growth (effect in words) [4]: potently inhibited
Number of osteoclasts at tumor-bone interface (effect in words) [4]: decreased
Inhibition of progression of osteoblastic lesions [4]: 50%
Growth/progression of osteoblastic lesions (effect in words) [4]: significantly inhibited
Survival Days after Treatment, Average [5]: 6.6 days
Whole body tumor burden (effect in words) [5, 8]: significantly decreased
Whole body tumor burden reduction ([5]; fluorescence imaging at sacrifice, day 13 after inoculation, 6 days of treatment): 67%
Whole body tumor burden (effect in words) ([5]; fluorescence imaging at sacrifice, listed as compound A1): decreased
Reduction of kidney metastases ([5]; frequency of soft tissue metastases): 73%
Relative tumor area in bone marrow area (effect in words) ([5]; histomorphometry, ANOVA p=0.099477): Trends of inhibition
Survival Days after Treatment [5]: 6 days (5×) and 4 days and 8 days (4×)
Adrenal glands with metastasis [5]: 61%
Ovaries with metastasis [5]: 56%
Kidneys with metastasis [5]: 17%
Reduction in total osteolytic area ([5]; radiography at sacrifice): 53.2%
Total osteolytic area / tumor-induced osteolysis (effect in words) ([5]; radiography at sacrifice): strongly inhibited
MCF-7 cell proliferation (effect in words) (MCF-7 [1]): potent anti-proliferative activity
LNCaP cell proliferation (effect in words) (LNCaP): strong anti-proliferative effects
MCF-7 apoptosis induction / tumor cell death (effect in words) (MCF-7 [7]): only at high dose can induce apoptosis
